The species entered for experiment [1] is Rattus norvegicus. Put plainly: Compound was tested for in vitro activity of luteolysis on corpora lutea from pseudopregnant rats; inactive. It is filed as functional.
The species named for experiment [2] is Rattus norvegicus. Put plainly: Compound was tested for in vitro activity of luteolysis on corpora lutea from pseudopregnant rats. It is filed as functional. The note with it: read-out: ED50 (the source's name).

Calls of active or inactive are those of the source. The rule behind the calls is not given here.

`Cc1cccc2nc(-c3ccccc3)nn12`: in the experiment filed under Rattus norvegicus [1], the ED50 result is “inactive”. `Cc1cccc2nc(-c3ccc4c(c3)OCO4)nn12`: the EC50 in the experiment filed under Rattus norvegicus [2] stood at 65 µM.

The values are drawn from ChEMBL document CHEMBL1134899, “Non-steroidal pregnancy-terminating agents: design, synthesis and structure-activity relationships of 2-aryl-1,2,4-triazolo[1,5-a]pyridine” (2002).
